Earlier results on one compound are cited in patent publication US20240050388A1 (BioLink Life Sciences, Inc., priority 2022, published 2024).

For the series the following is noted: oral.

Consider `CC(=O)[O-].CC(=O)[O-].[Ca+2]` [calcium acetate], for which the “In vivo phosphate binding” value is “essentially quantitative”.
